Test results: patent publication US8404704B2 (Alfa Wassermann S.p.A., priority 2003, dated 2013)

Assays:
[1] = Intrinsic dissolution test (USP 27 monograph 1087); assay type: physicochemical; details: 0.1M aqueous phosphate buffer pH 7.4 with 0.45% sodium lauryl sulphate, 37°C
Excerpt: The die-holder containing the compacted pellet was then mounted on a laboratory stirring device, immersed in a dissolution medium and rotated by means of the stirring device.
A compacted pellet was formed in the die with a single face of defined area exposed on the bottom of the die so that from 50% to 75% of the compacted pellet could dissolve in an appropriate dissolution medium.
The holder containing the die was mounted on a laboratory stirring device, immersed in a glass vessel containing a dissolution medium and rotated at a rotation speed of 100 rpm by means of the stirring device, while keeping the temperature of the dissolution medium at 37±0.5° C. The dissolution medium contained in the glass vessel consisted of 1000 ml of 0.1M aqueous phosphate buffer pH 7.4 containing 4.5 g of sodium lauryl sulphate (SLS) and was kept at 37±0.5° C. for the whole duration of the test.

in vivo [2] = test: in vivo; set-up: species or system Beagle female dogs; details: female, beagle, dog, po; for Tmax: tmax (characterising range of the form)
Method: Twelve 20 week pure-bred Beagle female dogs weighing between 5.0 and 7.5 kg, have been divided into three groups of four dogs.
Each sample was transferred into an heparinized tube and was centrifuged; the plasma was divided into two 500 μl aliquots and frozen at −20° C.
(§1) Tmax=time at which the Cmax is reached;
(§2) AUC=area under the concentration-time curve calculated through the linear trapezoidal rule.

in vivo [3] = test: in vivo; set-up: species or system Beagle female dogs; details: dog; for AUC(0-t) / AUC(0-inf) / Cmax / Tmax: female, beagle, po; for AUC(0-t): AUC0-24 h; for AUC(0-inf): AUC0-inf
Method: Sixteen 20 week pure-bred Beagle female dogs weighing between 5.0 and 7.5 kg, have been divided into four groups of four dogs.
Each sample was transferred into a heparinized tube and was centrifuged; the plasma was divided into 500 μl two aliquots and frozen at −20° C.
as §1, §2

[4] = Reversible conversion of polymorphic forms with water content; assay type: physicochemical; details: water absorbed from atmospheric humidity
Excerpt: The product is hygroscopic and the obtained polymorphic form is reversible: the polymorphic form α absorbs water from atmospheric humidity, depending on the relative humidity and the exposure time. When the water content absorbed by the polymorphic form α becomes higher than 4.5%, polymorphous a converts to polymorphous β. This in its turn loses part of water by drying, changing into the polymorphic form α when a water content between […] is reached.

[5] = Intrinsic dissolution test (USP 27 monograph 1087); assay type: physicochemical; details: phosphate buffer pH 7.4, 37°C; SLS 0.1%, 0.3%, 0.45% and absent

Row | SMILES | Intrinsic dissolution rate [1] | Rifaximin dissolved ([1]; 15 min) | Rifaximin dissolved ([1]; 30 min) | Rifaximin dissolved ([1]; 45 min) | Rifaximin dissolved ([1]; 60 min) | AUC0-inf (characterising range of the form) (in vivo [2]) | Cmax (characterising range of the form) (in vivo [2]; 100 mg/kg) | tmax (characterising range of the form) (in vivo [2]; 100 mg/kg) | AUC0-24h (characterising range of the form) (in vivo [2]) | Cmax (characterising range of the form) (in vivo [2]) | AUC0-inf (characterising range of the form) (in vivo [2]; 100 mg/kg) | further results
1 | CO[C@H]1/C=C/O[C@@]2(C)Oc3c(C)c(O)c4c(O)c(c5c(nc6cc(C)ccn65)c4c3C2=O)NC(=O)/C(C)=C\C=C\[C@H](C)[C@H](O)[C@@H](C)[C@@H](O)[C@@H](C)[C@H](OC(C)=O)[C@@H]1C [rifaximin γ, Rifaximin] | 0.1444 mg/min/cm^2 | 2.46 mg/cm^2 | 4.52 mg/cm^2 | 6.44 mg/cm^2 | 9.04 mg/cm^2 | 0.0 to 22000 ng·h/mL | 0.0 to 5000 ng/mL | 1.0 to 6.0 h |  |  |  | AUC(0-t) (in vivo [2]; 100 mg/kg, AUC0-24h (characterising range of the form)): < 22000 ng·h/mL; Cmax (in vivo [2]; Cmax): 1080 ng/mL; dose dependency of exposure (in words) (in vivo [3]): tended to increase in an over-proportional way compared to the administered dose; AUC(0-t) (in vivo [3]; 25 mg/kg): 304 ng·h/mL; AUC(0-inf) (in vivo [3]; 25 mg/kg): 548 ng·h/mL; Cmax (in vivo [3]; 25 mg/kg): 114 ng/mL; Tmax (in vivo [3]; 25 mg/kg, tmax): 1.5 h; Tmax (in vivo [3]; 100 mg/kg): 2 h; AUC(0-t) (in vivo [3]; 300 mg/kg): 25000 ng·h/mL; AUC(0-inf) (in vivo [3]; 300 mg/kg): 25500 ng·h/mL; Cmax (in vivo [3]; 300 mg/kg): 3150 ng/mL; Tmax (in vivo [3]; 300 mg/kg, tmax): 3 h
2 | CO[C@H]1/C=C/O[C@@]2(C)Oc3c(C)c(O)c4c(O)c(c5c(nc6cc(C)ccn65)c4c3C2=O)NC(=O)/C(C)=C\C=C\[C@H](C)[C@H](O)[C@@H](C)[C@@H](O)[C@@H](C)[C@H](OC(C)=O)[C@@H]1C [rifaximin β, Rifaximin] | 0.0147 mg/min/cm^2 | 0.28 mg/cm^2 | 0.50 mg/cm^2 | 0.72 mg/cm^2 | 0.94 mg/cm^2 | 0 to 45 ng·h/mL | 0.0 to 3.7 ng/mL |  | 0 to 40 ng·h/mL | 0.0 to 40 ng/mL | 0.0 to 50 ng·h/mL | tmax (characterising range of the form) (in vivo [2]): 1 to 6 h; AUC(0-t) (in vivo [2]; 100 mg/kg, AUC0-t (characterising range of the form)): < 40 ng·h/mL; Tmax (in vivo [2]; 100 mg/kg): 1 to 6 h
3 | CO[C@H]1/C=C/O[C@@]2(C)Oc3c(C)c(O)c4c(O)c(c5c(nc6cc(C)ccn65)c4c3C2=O)NC(=O)/C(C)=C\C=C\[C@H](C)[C@H](O)[C@@H](C)[C@@H](O)[C@@H](C)[C@H](OC(C)=O)[C@@H]1C [rifaximin α, Rifaximin] |  |  |  |  |  | 10 to 24 ng·h/mL | 0.0 to 5.5 ng/mL | 1.0 to 6 h | 0 to 100 ng·h/mL | 0.0 to 10 ng/mL | 0 to 110 ng·h/mL | Tmax (in vivo [2]): 1 to 6 h; water content above which form α converts to form β [4]: higher than 4.5%; Tmax (in vivo [3]; 100 mg/kg, tmax): 2.5 h; disintegration of the compacted pellet [5]: ≤ 10 min
